This passage reports melting point results from patent US8779129B2, “Triazinedione derivatives as GABAB receptor modulators” (Addex Pharma S.A., priority 2006, dated 2014).

As for `COc1nn(-c2cccc(Nc3nccs3)c2)c(=O)n(Cc2ccc(Cl)cc2)c1=O` [4.144, 4-(4-chlorobenzyl)-6-methoxy-2-(3-(thiazol-2-ylamino)phenyl)-1,2,4-triazine-3,5(2H,4H)-dione], the melting point was 176 to 178 °C. The compound `CC(=O)Nc1cccc(-n2nc(C#N)c(=O)n(Cc3ccc(Cl)cc3)c2=O)c1` [1.01, N-(3-(4-(4-chlorobenzyl)-6-cyano-3,5-dioxo-4,5-dihydro-1,2,4-triazin-2(3H)-yl)phenyl)acetamide] registered a melting point of 196 °C. In the case of `CC(=O)Nc1cccc(-n2ncc(=O)n(Cc3ccc(C#N)cc3)c2=O)c1` [2.05, N-(3-(4-(4-cyanobenzyl)-3,5-dioxo-4,5-dihydro-1,2,4-triazin-2(3H)-yl)phenyl)acetamide] it was 184 to 185 °C; in that of `CC(=O)Nc1cccc(-n2nc(C)c(=O)n(Cc3ccc(Cl)cc3)c2=O)c1` [3.01, N-(3-(4-(4-chlorobenzyl)-6-methyl-3,5-dioxo-4,5-dihydro-1,2,4-triazin-2(3H)-yl)phenyl)acetamide], 168 °C; in that of `CC(=O)Nc1cccc(-n2nc(C(C)C)c(=O)n(Cc3ccc(Cl)cc3)c2=O)c1` [5.01, N-(3-(4-(4-chlorobenzyl)-6-isopropyl-3,5-dioxo-4,5-dihydro-1,2,4-triazin-2(3H)-yl)phenyl)acetamide], 178 °C. As for `CC(=O)Nc1cccc(-n2ncc(=O)n(Cc3ccc(Cl)cc3F)c2=O)c1` [2.20, N-(3-(4-(4-chloro-2-fluorobenzyl)-3,5-dioxo-4,5-dihydro-1,2,4-triazin-2(3H)-yl)phenyl)acetamide], the figure is 184 °C; as for `COC(=O)c1nn(-c2cccc(NC(C)=O)c2)c(=O)n(Cc2ccc(Cl)cc2)c1=O` [5.17, Methyl 4-(4-chlorobenzyl)-2-(3-acetamidophenyl)-3,5-dioxo-2,3,4,5-tetrahydro-1,2,4-triazine-6-carboxylate], 193 °C; as for `CC(=O)Nc1cccc(-n2nc(N(C)C)c(=O)n(Cc3ccc(Cl)cc3)c2=O)c1` [5.13, N-(3-(4-(4-chlorobenzyl)-6-(dimethylamino)-3,5-dioxo-4,5-dihydro-1,2,4-triazin-2(3H)-yl)phenyl)acetamide], 189 to 190 °C. As for `COCC(=O)Nc1cccc(-n2nc(OC)c(=O)n(Cc3ccc(Cl)cc3)c2=O)c1` [4.141, N-(3-(4-(4-chlorobenzyl)-6-methoxy-3,5-dioxo-4,5-dihydro-1,2,4-triazin-2(3H)-yl)phenyl)-2-methoxyacetamide], the melting point came to 143 °C.

Turning to `CC(=O)Nc1cccc(-n2nc(CN(C)C)c(=O)n(Cc3ccc(Cl)cc3)c2=O)c1.Cl`, the melting point was 143 °C. In the case of `CC(=O)Nc1cccc(-n2nc(C(=O)OC(C)C)c(=O)n(Cc3ccc(Cl)cc3)c2=O)c1` [5.18, Isopropyl 2-(3-acetamidophenyl)-4-(4-chlorobenzyl)-3,5-dioxo-2,3,4,5-tetrahydro-1,2,4-triazine-6-carboxylate] it was 183 °C; in that of `COc1nn(-c2cccc(N(C)C(C)=O)c2)c(=O)n(Cc2ccc(Cl)cc2)c1=O` [4.133, N-(3-(4-(4-chlorobenzyl)-6-methoxy-3,5-dioxo-4,5-dihydro-1,2,4-triazin-2(3H)-yl)phenyl)-N-methylacetamide], 157 °C; in that of `COc1nn(-c2cccc(-c3noc(C)n3)c2)c(=O)n(Cc2ccc(Cl)cc2)c1=O` [4.146, 4-(4-chlorobenzyl)-6-methoxy-2-(3-(5-methyl-1,2,4-oxadiazol-3-yl)phenyl)-1,2,4-triazine-3,5(2H,4H)-dione], 163 to 165 °C. With `CC(=O)Nc1cccc(-n2ncc(=O)n(Cc3ccc(Cl)cc3)c2=O)c1` [2.01, N-(3-(4-(4-chlorobenzyl)-3,5-dioxo-4,5-dihydro-1,2,4-triazin-2(3H)-yl)phenyl)acetamide], the melting point is 171 to 172 °C. The compound `COc1nn(-c2cccc(NC(C)=O)c2)c(=O)n(Cc2ccc(Cl)cc2)c1=O` [4.01, N-(3-(4-(4-chlorobenzyl)-6-methoxy-3,5-dioxo-4,5-dihydro-1,2,4-triazin-2(3H)-yl)phenyl)acetamide] displayed a melting point of 190 to 191 °C. As for `COCc1nn(-c2cccc(NC(C)=O)c2)c(=O)n(Cc2ccc(Cl)cc2)c1=O` [5.16, N-(3-(4-(4-chlorobenzyl)-6-(methoxymethyl)-3,5-dioxo-4,5-dihydro-1,2,4-triazin-2(3H)-yl)phenyl)acetamide], the figure is 97 °C.

`COc1nn(-c2ccccc2O)c(=O)n(Cc2ccc(Cl)cc2)c1=O` [4.143, 4-(4-chlorobenzyl)-2-(2-hydroxyphenyl)-6-methoxy-1,2,4-triazine-3,5(2H,4H)-dione]: the melting point was in the range of 164 to 165 °C. As for `COc1nn(-c2cccc(NC(C)=O)c2)c(=O)n(Cc2ccc3c(c2)OC(F)(F)O3)c1=O` [4.127, N-(3-(4-((2,2-difluorobenzo[d][1,3]dioxol-5-yl)methyl)-6-methoxy-3,5-dioxo-4,5-dihydro-1,2,4-triazin-2(3H)-yl)phenyl)acetamide], the figure is 184 °C; as for `COc1nn(-c2cccc(N3CCCC3=O)c2)c(=O)n(Cc2ccc(Cl)cc2)c1=O` [4.145, 4-(4-chlorobenzyl)-6-methoxy-2-(3-(2-oxopyrrolidin-1-yl)phenyl)-1,2,4-triazine-3,5(2H,4H)-dione], 91 to 93 °C.
